According to article PMC9862759 (Viruses, 2023):
Where “and” joins values, the source holds several entries; their conditions need not be identical. Identical values can stand only once. Like-named read-outs stand apart in the source and are kept apart here.

Tests used:
[1] = system: HEK-293T-ACE2^h cells; assay: MTT cytotoxicity assay on host cells (4 h); type: cell-based, human; conditions: MTT, 4 h
[2] = system: Beas-2B cells; assay: MTT cytotoxicity on human normal cell line Beas-2B (24 h); type: cell-based; conditions: Homo sapiens, BEAS-2B, 24 h, read-out: IC50 Values of Human Normal Cell Lines, Beas-2B
[3] = system: LO2 cells; assay: MTT cytotoxicity on human normal cell line LO2 (24 h); type: cell-based; conditions: Homo sapiens, L02, 24 h, read-out: IC50 Values of Human Normal Cell Lines, LO2
[4] = system: HEK 293 cells; assay: MTT cytotoxicity on human normal cell line HEK 293 (24 h); type: cell-based; conditions: Homo sapiens, HEK293, 24 h, read-out: IC50 Values of Human Normal Cell Lines, HEK 293
[5] = system: SARS-CoV-2 pseudovirus; conditions: for IC50: read-out: IC50 (inhibition of pseudovirus entry into host cells)
[6] = system: SARS-CoV-2 pseudovirus; assay: microbe, parasite or virus in culture; conditions: Severe acute respiratory syndrome-related coronavirus, read-out: IC50 (inhibition of pseudovirus entry into host cells)

| SMILES | CC0 (maximum nontoxic concentration) [1] | TC50 (concentration reducing cell viability by 50%) [1] | IC50 [2] | IC50 [3] | IC50 [4] | SI (ratio of TC50 to IC50) [5] | IC50 [6] | IC50 [5] |
| --- | --- | --- | --- | --- | --- | --- | --- | --- |
| Oc1cc(O)c2c(c1)OC(c1ccc(O)c(O)c1)C(O)C2 (racemic) [compound 21, (±)-Catechin] | 300 µM | >500 µM | > 500 µM | > 500 µM | > 500 µM | >3.19 | 157 ± 12 µM |  |
| COc1ccc2cc1Oc1ccc(cc1)C[C@H]1c3c(cc4c(c3Oc3cc5c(cc3OC)CCN(C)[C@@H]5C2)OCO4)CCN1C [Cepharanthine, reference compound] | 6.25 µM | 11.54 µM and 11.54 ± 1.39 µM | 26.1 ± 1.08 µM | 16.06 ± 0.13 µM | 24.3 ± 0.22 µM | 8.88 | 1.3 ± 0.18 µM |  |
| O=c1cc(-c2ccccc2)oc2cc(O)cc(O)c12 [compound 1, Chrysin] | 100 µM | 168.50 ± 12.06 µM |  |  |  | <1.69 | > 100 µM |  |
| O=c1cc(-c2ccc(O)cc2)oc2cc(O)cc(O)c12 [compound 2, Apigenin] | 50 µM | 90.88 ± 3.13 µM |  |  |  | <1.82 | > 50 µM |  |
| O=c1cc(-c2ccc(O)c(O)c2)oc2cc(O)cc(O)c12 [compound 3, Luteolin] | 200 µM | >300 µM | > 300 µM | 183 ± 10.3 µM | > 300 µM |  |  |  |
| O=c1cc(-c2ccc(O)cc2)oc2c([C@@H]3O[C@H](CO)[C@@H](O)[C@H](O)[C@H]3O)c(O)cc(O)c12 [compound 4, Vitexin] | 300 µM | >500 µM |  |  |  |  | > 300 µM |  |
| O=c1cc(-c2ccc(O)c(O)c2)oc2c([C@@H]3O[C@H](CO)[C@@H](O)[C@H](O)[C@H]3O)c(O)cc(O)c12 [compound 5, Orientin] | 300 µM | >500 µM | > 500 µM | > 500 µM | > 500 µM | >7.85 | 63.7 ± 9.61 µM |  |
| CC1OC(OC2C(c3c(O)cc(O)c4c(=O)cc(-c5ccc(O)cc5)oc34)OC(CO)C(O)C2O)C(O)C(O)C1O (centres unmarked) [compound 6, Vitexin-2″-O-rhamnoside] | 300 µM | >500 µM |  |  |  |  | > 300 µM |  |
| O=c1cc(-c2ccccc2)oc2cc(O)c(O)c(O)c12 [compound 7, Baicalein] | 200 µM | >500 µM | 494 ± 9.64 µM | > 500 µM | > 500 µM | >9.80 | 51 ± 6.48 µM |  |
| COc1c(O)cc2oc(-c3ccccc3)cc(=O)c2c1O [compound 8, Oroxylin A] | 100 µM | >300 µM | > 300 µM | > 300 µM | > 300 µM | >8.08 | < 50 µM | 37.1 ± 2.58 µM |
| O=c1cc(-c2ccc(O)cc2)oc2cc(O)c(O)c(O)c12 [compound 9, Scutellarein] | 200 µM | >300 µM | > 300 µM | > 300 µM | > 300 µM | >10.25 | < 50 µM | 29.3 ± 0.74 µM |
| O=c1cc(-c2ccccc2)oc2cc(O[C@@H]3O[C@H](CO)[C@@H](O)[C@H](O)[C@H]3O)c(O)c(O)c12 [compound 10, Oroxin A] | 300 µM | >300 µM | > 300 µM | > 300 µM | 258 ± 10.6 µM | >3.55 | 84.6 ± 10.8 µM |  |
| O=c1cc(-c2ccccc2)oc2cc(O[C@@H]3O[C@H](CO[C@@H]4O[C@H](CO)[C@@H](O)[C@H](O)[C@H]4O)[C@@H](O)[C@H](O)[C@H]3O)c(O)c(O)c12 [compound 11, Oroxin B] | 300 µM | >300 µM | > 300 µM | > 300 µM | > 300 µM | >2.33 | 129 ± 19 µM |  |
| O=C(O)[C@H]1O[C@@H](Oc2cc3oc(-c4ccccc4)cc(=O)c3c(O)c2O)[C@H](O)[C@@H](O)[C@@H]1O [compound 12, Baicalin] | 300 µM | >500 µM | > 500 µM | > 500 µM | > 500 µM | >4.56 | 110 ± 11 µM |  |
| COc1c(O[C@@H]2O[C@H](C(=O)O)[C@@H](O)[C@H](O)[C@H]2O)cc(O)c2c(=O)cc(-c3ccccc3)oc12 [compound 13, Wogonoside] | 300 µM | >500 µM | > 500 µM | > 500 µM | > 500 µM | >4.20 | 119 ± 21 µM |  |
| O=c1c(O[C@@H]2O[C@H](CO)[C@@H](O)[C@H](O)[C@H]2O)c(-c2ccc(O)cc2)oc2cc(O)cc(O)c12 [compound 17, Astragalin] | 300 µM | >500 µM | > 500 µM | > 500 µM | > 500 µM | >3.76 | 133 ± 16.2 µM |  |
| O=c1c(O[C@@H]2O[C@H](CO)[C@@H](O)[C@H](O)[C@H]2O)c(-c2ccc(O)c(O)c2)oc2cc(O)cc(O)c12 [compound 18, Isoquercitrin] | 300 µM | >500 µM | > 500 µM | > 500 µM | > 500 µM | >5.30 | 94.4 ± 1.59 µM |  |
| O=c1c(O[C@@H]2O[C@H](CO)[C@H](O)[C@H](O)[C@H]2O)c(-c2ccc(O)c(O)c2)oc2cc(O)cc(O)c12 [compound 19, Hyperoside] | 300 µM | >500 µM | > 500 µM | > 500 µM | > 500 µM | >6.02 | 83.1 ± 10.7 µM |  |
| C[C@@H]1O[C@@H](OC[C@H]2O[C@@H](Oc3c(-c4ccc(O)c(O)c4)oc4cc(O)cc(O)c4c3=O)[C@H](O)[C@@H](O)[C@@H]2O)[C@H](O)[C@H](O)[C@H]1O [compound 20, Rutin] | 300 µM | >500 µM | > 500 µM | > 500 µM | > 500 µM | >3.40 | 147 ± 21.1 µM |  |
| Oc1cc(O)c2c(c1)O[C@H](c1ccc(O)c(O)c1)[C@H](O)[C@H]2c1c(O)cc(O)c2c1O[C@H](c1ccc(O)c(O)c1)[C@@H](O)C2 [compound 27, Procyanidin B-1] | 300 µM | >500 µM |  |  |  |  | > 300 µM |  |
| Oc1cc(O)c2c(c1)O[C@H](c1ccc(O)c(O)c1)[C@H](O)[C@H]2c1c(O)cc(O)c2c1O[C@H](c1ccc(O)c(O)c1)[C@H](O)C2 [compound 28, Procyanidin B-2] | 300 µM | >500 µM |  |  |  |  | > 300 µM |  |
| Oc1cc(O)c2c(c1)O[C@H](c1ccc(O)c(O)c1)[C@@H](O)[C@@H]2c1c(O)cc(O)c2c1O[C@H](c1ccc(O)c(O)c1)[C@@H](O)C2 [compound 29, Procyanidin B-3] | 300 µM | >500 µM |  |  |  |  | > 300 µM |  |
